23 compounds from patent US8580825B2, “Oxadiazole inhibitors of leukotriene production” (Boehringer Ingelheim International GmbH, priority 2010, dated 2013) can be followed below.

In assay [1] the test system is synthesis of LTB4 in human whole blood. Description: human whole blood LTB4 production inhibition assay. The conditions noted are these: calcimycin stimulated, read-out: hWB LTB4 IC50. The assay is classed as cell-based. In short, it runs like this: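 Whole-blood cellular format, heparinized human donors: 15 min compound pretreatment, then 30 min calcimycin stimulation (20 μM final), both at 37° C. Low-speed centrifugation yields plasma, in which LTB4 is read by homogeneous time-resolved fluorescence immunoassay.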

Assay [2] concerns the target T1, recombinant human FLAP protein (Homo sapiens, UniProt P20292).
T1 construct: made in house; host or cells: Sf9 insect cells (100,000xg membrane fraction used)
T1 sequence (P20292 1-161): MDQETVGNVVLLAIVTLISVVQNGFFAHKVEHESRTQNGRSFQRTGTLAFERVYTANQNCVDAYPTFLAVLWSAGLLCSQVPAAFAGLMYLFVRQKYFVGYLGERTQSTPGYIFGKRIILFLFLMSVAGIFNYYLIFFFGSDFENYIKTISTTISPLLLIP
As to the kind of experiment: FLAP binding assay (Scintillation Proximity Assay, displacement of [125I]L-691,831). The conditions noted are these: read-out: FLAP SPA IC50. In a few lines: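 Scintillation proximity displacement of [125I]L-691,831 (0.08 nM) from membranes of sf9 cells expressing recombinant human FLAP (5 μg/well) on WGA SPA beads, pH 7.5 Tris buffer. Plates shaken 2 h before counting. Non-specific binding defined with 10 μM unlabelled L-691,831.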

The structures appear in SMILES notation.

Broadly, the IC50 is the midpoint of a concentration-inhibition curve.

Take `CC(C)[C@](C)(c1ccc(-c2ccc(N)nc2)nc1)c1noc(-c2cnn(CC(=O)N(C)C)c2)n1` [Example 132, 2-(4-{3-[(R)-1-(6′-Amino-[2,3′]bipyridinyl-5-yl)-1,2-dimethyl-propyl]-[1,2,4]oxadiazol-5-yl}-pyrazol-1-yl)-N,N-dimethyl-acetamide]: the IC50 came to 130 nM in assay [1] and 12 nM in assay [2].
In the same order, the values of `COCCn1cc(-c2nc([C@@](C)(c3ccc(-c4ccc(N)nc4)nc3)C(C)C)no2)cn1` [Example 133, 5-((R)-1-{5-[1-(2-Methoxy-ethyl)-1H-pyrazol-4-yl]-[1,2,4]oxadiazol-3-yl}-1,2-dimethyl-propyl)-[2,3′]bipyridinyl-6′-ylamine] are 30 nM and 7.5 nM.
Consider `C[C@@](c1ccc(-c2cnc(N)nc2)nc1)(c1noc(-c2cnc(N3CCNCC3)cn2)n1)C1CC1` [Example 134, 5-(5-{(R)-1-Cyclopropyl-1-[5-(3,4,5,6-tetrahydro-2H-[1,2′]bipyrazinyl-5′-yl)-[1,2,4]oxadiazol-3-yl]-ethyl}-pyridin-2-yl)-pyrimidin-2-ylamine], for which the results for the IC50 in assay [1] and in assay [2] were 310 nM and 7.2 nM, respectively.
For `CC(C)[C@](C)(c1ccc(-c2ccc(N)nc2)nc1)c1noc(-c2cnn(CC(C)(C)O)c2)n1` [Example 136, 1-(4-{3-[(R)-1-(6′-Amino-[2,3′]bipyridinyl-5-yl)-1,2-dimethyl-propyl]-[1,2,4]oxadiazol-5-yl}-pyrazol-1-yl)-2-methyl-propan-2-ol], the values for the IC50 in assay [1] and in assay [2] were 61 nM and 9.9 nM, respectively.
Consider `CC(C)[C@](C)(c1ccc(-c2ccc(N)nc2)nc1)c1noc(-c2cnc(N3CCNCC3)cn2)n1` [Example 137, 5-{(R)-1,2-Dimethyl-1-[5-(3,4,5,6-tetrahydro-2H-[1,2′]bipyrazinyl-5′-yl)-[1,2,4]oxadiazol-3-yl]-propyl}-[2,3′]bipyridinyl-6′-ylamine], for which the IC50 stood at 590 nM in assay [1] and 11 nM in assay [2].
For the compound `COCCn1cc(-c2nc([C@@](C)(c3ccc(-c4ccc(N)nc4)nc3)C3CC3)no2)cn1` [Example 138, 5-((R)-1-Cyclopropyl-1-{5-[1-(2-methoxy-ethyl)-1H-pyrazol-4-yl]-[1,2,4]oxadiazol-3-yl}-ethyl)-[2,3′]bipyridinyl-6′-ylamine], the results for the IC50 in assay [1] and in assay [2] were 100 nM and 22 nM, respectively.
Consider `CC(C)(O)Cn1cc(-c2nc([C@@](C)(c3ccc(-c4ccc(N)nc4)nc3)C3CC3)no2)cn1` [Example 139, 1-(4-{3-[(R)-1-(6′-Amino-[2,3′]bipyridinyl-5-yl)-1-cyclopropyl-ethyl]-[1,2,4]oxadiazol-5-yl}-pyrazol-1-yl)-2-methyl-propan-2-ol], for which the figures for the IC50 in assay [1] and in assay [2] were 68 nM and 33 nM, respectively.
The like results for `CN(C)C(=O)Cn1cc(-c2nc([C@@](C)(c3ccc(-c4ccc(N)nc4)nc3)C3CC3)no2)cn1` [Example 140, 2-(4-{3-[(R)-1-(6′-Amino-[2,3′]bipyridinyl-5-yl)-1-cyclopropyl-ethyl]-[1,2,4]oxadiazol-5-yl}-pyrazol-1-yl)-N,N-dimethyl-acetamide] were, in that order, 150 nM and 44 nM.
On to `CC(C)[C@](C)(c1ccc(-c2cnc(N)nc2)nc1)c1noc(-c2cnn(CC(=O)NC(C)(C)C)c2)n1` [Example 141, 2-[4-(3-{(R)-1-[6-(2-Amino-pyrimidin-5-yl)-pyridin-3-yl]-1,2-dimethyl-propyl}-1,2,4-oxadiazol-5-yl)-pyrazol-1-yl]-N-tert-butyl-acetamide], for which the IC50 was 68 nM in assay [1] and 8.3 nM in assay [2].
In the same order, the values of `CC(C)NC(=O)Cn1cc(-c2nc([C@@](C)(c3ccc(-c4cnc(N)nc4)nc3)C(C)C)no2)cn1` [Example 142, 2-[4-(3-{(R)-1-[6-(2-Amino-pyrimidin-5-yl)-pyridin-3-yl]-1,2-dimethyl-propyl}-1,2,4-oxadiazol-5-yl)-pyrazol-1-yl]-N-isopropyl-acetamide] are 85 nM and 16 nM.
Regarding `CC(C)[C@](C)(c1ccc(-c2cnc(N)nc2)nc1)c1noc(-c2cnn(CC(=O)N(C)C(C)(C)C)c2)n1` [Example 143, 2-[4-(3-{(R)-1-[6-(2-Amino-pyrimidin-5-yl)-pyridin-3-yl]-1,2-dimethyl-propyl}-1,2,4-oxadiazol-5-yl)-pyrazol-1-yl]-N-tert-butyl-N-methyl-acetamide], the IC50 worked out at 51 nM in assay [1] and 9.2 nM in assay [2].
For the compound `CC(C)[C@](C)(c1ccc(-c2cnc(N)nc2)nc1)c1noc(-c2cnn(CC(=O)N(C)C3CC3)c2)n1` [Example 144, 2-[4-(3-{(R)-1-[6-(2-Amino-pyrimidin-5-yl)-pyridin-3-yl]-1,2-dimethyl-propyl}-1,2,4-oxadiazol-5-yl)-pyrazol-1-yl]-N-cyclopropyl-N-methyl-acetamide], the IC50 in assay [1] was determined as 68 nM; in assay [2], 13 nM.
With `CC(C)CNC(=O)Cn1cc(-c2nc([C@@](C)(c3ccc(-c4cnc(N)nc4)nc3)C(C)C)no2)cn1` [Example 145, 2-[4-(3-{(R)-1-[6-(2-Amino-pyrimidin-5-yl)-pyridin-3-yl]-1,2-dimethyl-propyl}-1,2,4-oxadiazol-5-yl)-pyrazol-1-yl]-N-isobutyl-acetamide], the IC50 in assay [1] stood at 110 nM; in assay [2], 14 nM.
In the same order, the values of `CC(C)[C@](C)(c1ccc(-c2cnc(N)nc2)nc1)c1noc(-c2cnn(CC(=O)N(C)CC3CCCO3)c2)n1` (stereo partly drawn) [Example 146, 2-[4-(3-{(R)-1-[6-(2-Amino-pyrimidin-5-yl)-pyridin-3-yl]-1,2-dimethyl-propyl}-1,2,4-oxadiazol-5-yl)-pyrazol-1-yl]-N-methyl-N-(tetrahydro-furan-2-ylmethyl)-acetamide] are 53 nM and 9.4 nM.
The like results for `CC(C)[C@](C)(c1ccc(-c2cnc(N)nc2)nc1)c1noc(-c2cnn(CC(=O)NC3CC3)c2)n1` [Example 147, 2-[4-(3-{(R)-1-[6-(2-Amino-pyrimidin-5-yl)-pyridin-3-yl]-1,2-dimethyl-propyl}-1,2,4-oxadiazol-5-yl)-pyrazol-1-yl]-N-cyclopropyl-acetamide] were, in that order, 170 nM and 8.6 nM.
On to `CC(C)[C@](C)(c1ccc(-c2cnc(N)nc2)nc1)c1noc(-c2cnn(CC(=O)NCC3CCCO3)c2)n1` (stereo partly drawn) [Example 148, 2-[4-(3-{(R)-1-[6-(2-Amino-pyrimidin-5-yl)-pyridin-3-yl]-1,2-dimethyl-propyl}-1,2,4-oxadiazol-5-yl)-pyrazol-1-yl]-N-(tetrahydro-furan-2-ylmethyl)-acetamide], for which the IC50 is 290 nM in assay [1] and 22 nM in assay [2].
The like results for `CCNC(=O)Cn1cc(-c2nc([C@@](C)(c3ccc(-c4cnc(N)nc4)nc3)C(C)C)no2)cn1` [Example 149, 2-[4-(3-{(R)-1-[6-(2-Amino-pyrimidin-5-yl)-pyridin-3-yl]-1,2-dimethyl-propyl}-1,2,4-oxadiazol-5-yl)-pyrazol-1-yl]-N-ethyl-acetamide] were, in that order, 140 nM and 15 nM.
In the same order, the values of `COC1CCN(C(=O)Cn2cc(-c3nc([C@@](C)(c4ccc(-c5cnc(N)nc5)nc4)C(C)C)no3)cn2)C1` (stereo partly drawn) [Example 150, 2-[4-(3-{(R)-1-[6-(2-Amino-pyrimidin-5-yl)-pyridin-3-yl]-1,2-dimethyl-propyl}-1,2,4-oxadiazol-5-yl)-pyrazol-1-yl]-1-(3-methoxy-pyrrolidin-1-yl)-ethanone] are 180 nM and 42 nM.
Turning to `CC(C)[C@](C)(c1ccc(-c2cnc(N)nc2)nc1)c1noc(-c2cnn(CC(=O)N3CCOCC3)c2)n1` [Example 151, 2-[4-(3-{(R)-1-[6-(2-Amino-pyrimidin-5-yl)-pyridin-3-yl]-1,2-dimethyl-propyl}-1,2,4-oxadiazol-5-yl)-pyrazol-1-yl]-1-morpholin-4-yl-ethanone], the IC50 is 190 nM in assay [1] and 32 nM in assay [2].
Turning to `COCCNC(=O)Cn1cc(-c2nc([C@@](C)(c3ccc(-c4cnc(N)nc4)nc3)C(C)C)no2)cn1` [Example 152, 2-[4-(3-{(R)-1-[6-(2-Amino-pyrimidin-5-yl)-pyridin-3-yl]-1,2-dimethyl-propyl}-1,2,4-oxadiazol-5-yl)-pyrazol-1-yl]-N-(2-methoxy-ethyl)-acetamide], the IC50 was 190 nM in assay [1] and 24 nM in assay [2].
On to `COCCN(C)C(=O)Cn1cc(-c2nc([C@@](C)(c3ccc(-c4cnc(N)nc4)nc3)C(C)C)no2)cn1` [Example 153, 2-[4-(3-{(R)-1-[6-(2-Amino-pyrimidin-5-yl)-pyridin-3-yl]-1,2-dimethyl-propyl}-1,2,4-oxadiazol-5-yl)-pyrazol-1-yl]-N-(2-methoxy-ethyl)-N-methyl-acetamide], for which the IC50 in assay [1] is 150 nM; in assay [2] it was 16 nM.
The like results for `CC(C)[C@](C)(c1ccc(-c2cnc(N)nc2)nc1)c1noc(-c2cnn(CC(=O)NC3CCOCC3)c2)n1` [Example 154, 2-[4-(3-{(R)-1-[6-(2-Amino-pyrimidin-5-yl)-pyridin-3-yl]-1,2-dimethyl-propyl}-1,2,4-oxadiazol-5-yl)-pyrazol-1-yl]-N-(tetrahydro-pyran-4-yl)-acetamide] were, in that order, 550 nM and 21 nM.
In the same order, the values of `COC1CCN(C(=O)Cn2cc(-c3nc([C@@](C)(c4ccc(-c5cnc(N)nc5)nc4)C(C)C)no3)cn2)CC1` [Example 155, 2-[4-(3-{(R)-1-[6-(2-Amino-pyrimidin-5-yl)-pyridin-3-yl]-1,2-dimethyl-propyl}-1,2,4-oxadiazol-5-yl)-pyrazol-1-yl]-1-(4-methoxy-piperidin-1-yl)-ethanone] are 110 nM and 19 nM.
